Data taken from patent publication US11104630B2, “Synthesis of mono-chlorinated acetophenone” (SIEGFRIED AG, priority 2017, dated 2021).

Assay: Solubility of the starting material in the solvent
Format: physicochemical
Conditions: 20° C., until clear solution
Method: Solubility of the Starting Material in the Solvent
To 1 g of HAP is added 5 ml of solvent. The mixture is stirred in a water bath at 20° C. The solvent is further slowly added under stirring until a clear solution appears.
The amount of used solvent is noted.

CC(=O)c1cccc(O)c1 [HAP, 3-hydroxy-acetophenon]
Solvent in ml per g HAP (solvent Acetone): 46 ml per g HAP | Solvent in ml per g HAP (solvent Acetonitrile): 6 ml per g HAP | Solvent in ml per g HAP (solvent Cyclohexane): >200 ml per g HAP | Solvent in ml per g HAP (solvent DCM): 22 ml per g HAP | Solvent in ml per g HAP (solvent Ethanol): 20 ml per g HAP | Solvent in ml per g HAP (solvent Ether): 8 ml per g HAP | Solvent in ml per g HAP (solvent Methanol): 10 ml per g HAP | Solvent in ml per g HAP (solvent Tetraglyme): 9 ml per g HAP | Solvent in ml per g HAP (solvent Toluene): 156 ml per g HAP | Solvent in ml per g HAP (solvent n-Heptane): 20 ml per g HAP | Solvent in ml per g HAP (solvent n-Hexane): 23 ml per g HAP
